The source of these data is patent publication US11034650B2, “Compounds useful for treating a Mannheimia haemolytica or Histophilus somni infection” (Intervet Inc., priority 2016, dated 2021).

Common to all, as to type: cell-based
Assay [1] has as its system Mannheimia haemolytica MH 6357 (M7/2, reference strain, cattle infection strain). The experiment in a line: MIC, broth-microdilution (CLSI VET01-A4), strain MH 6357. The settings on record: Mannheimia haemolytica strain MH 6357, broth-microdilution; unit assumed. In a few lines: (§1)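 MIC is the lowest compound concentration showing no visible growth by eye, read from doubling-dilution microdilution trays. Method followed CLSI VET01-A4, with interpretation under CLSI VET01-S3.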
For orientation: Broth dilution looks for growth in wells or tubes with falling amounts of substance.

Assay [2] has as its system Mannheimia haemolytica MH 6374 (ATCC 33396, reference strain). Put plainly: MIC, broth-microdilution (CLSI VET01-A4), strain MH 6374. The settings on record: Mannheimia haemolytica strain MH 6374, broth-microdilution; unit assumed. Put shortly: as §1
Assay [3] has as its system Mannheimia haemolytica MH 10720 (154, BRD field isolate). Put plainly: MIC, broth-microdilution (CLSI VET01-A4), strain MH 10720. The note with it: Mannheimia haemolytica strain MH 10720, broth-microdilution; unit assumed. Put shortly: as §1
For assay [4], the system named is Mannheimia haemolytica MH 12587 (1071, BRD field isolate, macrolide-resistance: erm+, E+). Put plainly: MIC, broth-microdilution (CLSI VET01-A4), strain MH 12587. The note with it: Mannheimia haemolytica strain MH 12587, broth-microdilution; unit assumed. Put shortly:
as §1

Assay [5] concerns Mannheimia haemolytica MH 13065 (XB0446-6003.9, BRD field isolate). Put plainly: MIC, broth-microdilution (CLSI VET01-A4), strain MH 13065. The note with it: Mannheimia haemolytica strain MH 13065, broth-microdilution; unit assumed. In a few lines:
as §1

Assay [6] relates to Mannheimia haemolytica MH 13093 (XB0472-6014.1, BRD field isolate). The experiment in a line: MIC, broth-microdilution (CLSI VET01-A4), strain MH 13093. The note with it: Mannheimia haemolytica strain MH 13093, broth-microdilution; unit assumed. In a few lines: as §1
Assay [7] deals with Pasteurella multocida PM 6267 (P 2225 (L386), reference strain, mouse infection strain). Put plainly: MIC, broth-microdilution (CLSI VET01-A4), strain PM 6267. The note with it: Pasteurella multocida strain PM 6267, broth-microdilution; unit assumed. In a few lines:
as §1

Assay [8] relates to Pasteurella multocida PM 6391 (ATCC 43137, reference strain). Put plainly: MIC, broth-microdilution (CLSI VET01-A4), strain PM 6391. The note with it: Pasteurella multocida strain PM 6391, broth-microdilution; unit assumed. Put shortly: as §1
Assay [9] concerns Pasteurella multocida PM 10775 (080130003051, BRD field isolate). Put plainly: MIC, broth-microdilution (CLSI VET01-A4), strain PM 10775. The settings on record: Pasteurella multocida strain PM 10775, broth-microdilution; unit assumed. In a few lines: as §1
For assay [10], the system named is Pasteurella multocida PM 12080 (IV102277-0093, BRD field isolate). The experiment in a line: MIC, broth-microdilution (CLSI VET01-A4), strain PM 12080. The settings on record: Pasteurella multocida strain PM 12080, broth-microdilution; unit assumed. Put shortly:
as §1

The structures appear in SMILES notation. Converted amounts (≈) assume the structure as drawn.

In [1], `CC(C)(O)[C@H](NC(=O)c1ccc(C#Cc2ccc(CNCc3nccs3)nc2)cc1)C(=O)NO` [Compound 362] had an MIC MH 6357 of 3.1 µg/mL (≈ 6.46 µM). The compound further returned an MIC MH 6374 in assay [2] of 0.8 µg/mL (≈ 1.67 µM). In assay [3], this compound came in with an MIC MH 10720 of 0.4 µg/mL (≈ 0.834 µM). Besides, in [4], the MIC MH 12587 turned out to be 3.1 µg/mL (≈ 6.46 µM). Further, the MIC MH 13065 in assay [5] was found to be 1.6 µg/mL (≈ 3.34 µM). In assay [6], the MIC MH 13093 stood at 3.1 µg/mL (≈ 6.46 µM). Moreover, in assay [7], the MIC PM 6267 was 0.2 µg/mL (≈ 0.417 µM). This compound also displayed an MIC PM 6391 in [8] of 0.4 µg/mL (≈ 0.834 µM). In [9], this compound returned an MIC PM 10775 not above 0.1 µg/mL. This compound registered an MIC PM 12080 in [10] of 0.2 µg/mL (≈ 0.417 µM).
As for `CC(C)(O)[C@H](NC(=O)c1ccc(C#Cc2ccc(CNCc3ncccn3)nc2)cc1)C(=O)NO` [Compound 363], in [1], the MIC MH 6357 came to 6.3 µg/mL (≈ 13.3 µM). The MIC MH 6374 in [2] turned out to be 6.3 µg/mL (≈ 13.3 µM). The same compound gave an MIC MH 10720 in [3] of 3.1 µg/mL (≈ 6.53 µM). The compound further displayed an MIC MH 12587 in assay [4] of 25 µg/mL (≈ 52.7 µM). The compound also had an MIC MH 13065 in assay [5] of 12.5 µg/mL (≈ 26.3 µM). Further, the MIC MH 13093 in assay [6] came to 25 µg/mL (≈ 52.7 µM). The same compound yielded an MIC PM 6267 in assay [7] of 1.6 µg/mL (≈ 3.37 µM). Besides, the MIC PM 6391 in [8] was 3.1 µg/mL (≈ 6.53 µM). For the same compound, the MIC PM 10775 in assay [9] was found to be 0.4 µg/mL (≈ 0.843 µM). Further, the MIC PM 12080 in assay [10] worked out at 1.6 µg/mL (≈ 3.37 µM).
In assay [1], `CSC(C)(C)[C@H](NC(=O)c1ccc(C#Cc2ccc(CNCc3ccncc3)s2)cc1)C(=O)NO` [Compound 364] had an MIC MH 6357 of 0.8 µg/mL (≈ 1.57 µM). For the same compound, the MIC MH 6374 in [2] worked out at 0.8 µg/mL (≈ 1.57 µM). The compound also came in with an MIC MH 10720 in [3] of 0.2 µg/mL (≈ 0.393 µM). In addition, in assay [4], the MIC MH 12587 came out at 1.6 µg/mL (≈ 3.15 µM). The compound further registered an MIC MH 13065 in [5] of 0.8 µg/mL (≈ 1.57 µM). Further, the MIC MH 13093 in assay [6] was found to be 0.8 µg/mL (≈ 1.57 µM). In [7], this compound yielded an MIC PM 6267 of 0.4 µg/mL (≈ 0.786 µM). For the same compound, the MIC PM 6391 in assay [8] is 0.4 µg/mL (≈ 0.786 µM). This compound displayed an MIC PM 10775 in assay [9] not above 0.1 µg/mL. In assay [10], this compound came in with an MIC PM 12080 not above 0.1 µg/mL.
With `CSC(C)(C)[C@H](NC(=O)c1ccc(C#Cc2ccc(CNCc3nccs3)s2)cc1)C(=O)NO` [Compound 365], in assay [1], the MIC MH 6357 was 0.8 µg/mL (≈ 1.55 µM). This compound displayed an MIC MH 6374 in [2] of 0.8 µg/mL (≈ 1.55 µM). For the same compound, the MIC MH 10720 in assay [3] came out at 0.2 µg/mL (≈ 0.389 µM). The compound also displayed an MIC MH 12587 in assay [4] of 3.1 µg/mL (≈ 6.02 µM). The MIC MH 13065 in assay [5] was determined as 1.6 µg/mL (≈ 3.11 µM). This compound had an MIC MH 13093 in assay [6] of 1.6 µg/mL (≈ 3.11 µM). Also, in assay [7], the MIC PM 6267 turned out to be 0.4 µg/mL (≈ 0.777 µM). In [8], this compound registered an MIC PM 6391 of 0.4 µg/mL (≈ 0.777 µM). In [9], this compound yielded an MIC PM 10775 not above 0.1 µg/mL. The compound also returned an MIC PM 12080 in assay [10] not above 0.1 µg/mL.
Turning to `CSC(C)(C)[C@H](NC(=O)c1ccc(C#Cc2ccc(CNCc3ncccn3)s2)cc1)C(=O)NO` [Compound 366], the MIC MH 6357 in assay [1] was found to be 0.8 µg/mL (≈ 1.57 µM). In addition, the MIC MH 6374 in assay [2] was 0.8 µg/mL (≈ 1.57 µM). The MIC MH 10720 in assay [3] worked out at 0.2 µg/mL (≈ 0.392 µM). This compound also registered an MIC MH 12587 in assay [4] of 1.6 µg/mL (≈ 3.14 µM). Further, in assay [5], the MIC MH 13065 was determined as 0.8 µg/mL (≈ 1.57 µM). The compound also displayed an MIC MH 13093 in assay [6] of 1.6 µg/mL (≈ 3.14 µM). The compound also registered an MIC PM 6267 in assay [7] of 0.4 µg/mL (≈ 0.785 µM). This compound came in with an MIC PM 6391 in assay [8] of 0.4 µg/mL (≈ 0.785 µM). In assay [9], this compound showed an MIC PM 10775 not above 0.1 µg/mL. This compound also showed an MIC PM 12080 in assay [10] of 0.2 µg/mL (≈ 0.392 µM).
Compound `CSC(C)(C)[C@H](NC(=O)c1ccc(C#Cc2ccc(CNCc3cccnc3)nc2)cc1)C(=O)NO` [Compound 367] gave an MIC MH 6357 in assay [1] of 0.8 µg/mL (≈ 1.59 µM). Besides, in assay [2], the MIC MH 6374 is 0.8 µg/mL (≈ 1.59 µM). Also, in [3], the MIC MH 10720 amounted to 0.4 µg/mL (≈ 0.794 µM). This compound also displayed an MIC MH 12587 in assay [4] of 3.1 µg/mL (≈ 6.16 µM). In assay [5], this compound returned an MIC MH 13065 of 1.6 µg/mL (≈ 3.18 µM). In [6], this compound registered an MIC MH 13093 of 3.1 µg/mL (≈ 6.16 µM). The MIC PM 6267 in [7] amounted to 0.4 µg/mL (≈ 0.794 µM). The MIC PM 6391 in [8] was 0.4 µg/mL (≈ 0.794 µM). Moreover, in [9], the MIC PM 10775 was not above 0.1 µg/mL. This compound registered an MIC PM 12080 in assay [10] of 0.2 µg/mL (≈ 0.397 µM).
In assay [1], `CSC(C)(C)[C@H](NC(=O)c1ccc(C#Cc2ccc(CNCc3nccs3)nc2)cc1)C(=O)NO` [Compound 368] had an MIC MH 6357 of 0.8 µg/mL (≈ 1.57 µM). In [2], the MIC MH 6374 was 0.8 µg/mL (≈ 1.57 µM). In assay [3], this compound yielded an MIC MH 10720 of 0.4 µg/mL (≈ 0.785 µM). This compound also returned an MIC MH 12587 in assay [4] of 1.6 µg/mL (≈ 3.14 µM). This compound also came in with an MIC MH 13065 in assay [5] of 0.8 µg/mL (≈ 1.57 µM). Further, the MIC MH 13093 in assay [6] turned out to be 1.6 µg/mL (≈ 3.14 µM). Moreover, the MIC PM 6267 in [7] was found to be 0.4 µg/mL (≈ 0.785 µM). The same compound showed an MIC PM 6391 in assay [8] of 0.4 µg/mL (≈ 0.785 µM). This compound returned an MIC PM 10775 in assay [9] not above 0.1 µg/mL. This compound displayed an MIC PM 12080 in assay [10] of 0.2 µg/mL (≈ 0.392 µM).
In turn, `CC(C)([C@H](NC(=O)c1ccc(C#Cc2ccc(CNCc3nccs3)s2)cc1)C(=O)NO)S(C)(=O)=O` [Compound 369] displayed an MIC MH 6357 in assay [1] of 0.4 µg/mL (≈ 0.732 µM). Besides, the MIC MH 6374 in [2] turned out to be 0.2 µg/mL (≈ 0.366 µM). The MIC MH 10720 in assay [3] was not above 0.1 µg/mL. Besides, the MIC MH 12587 in assay [4] was determined as 0.4 µg/mL (≈ 0.732 µM). In [5], the MIC MH 13065 is 0.4 µg/mL (≈ 0.732 µM). The same compound showed an MIC MH 13093 in assay [6] of 0.4 µg/mL (≈ 0.732 µM). The same compound yielded an MIC PM 6267 in assay [7] not above 0.1 µg/mL. In [8], the MIC PM 6391 is not above 0.1 µg/mL. In assay [9], this compound registered an MIC PM 10775 not above 0.1 µg/mL. The compound further yielded an MIC PM 12080 in assay [10] not above 0.1 µg/mL.
